PMC3914206

Assays:
Format in all cases: binding
panel of 442 kinases [1] = biological target: T1, panel of 442 kinases (Homo sapiens, UniProt P49841); conditions: Compound Concentration 10 µM
T1 construct: purchased KINOMEscan
From the text: (§1) We assessed the selectivity of members of this scaffold using the KINOMEscan methodology across a near comprehensive panel of 442 kinases [[18,27]].

panel of 442 kinases [2] = biological target: T2, panel of 442 kinases (Homo sapiens, UniProt Q8NFD2); conditions: Compound Concentration 10 µM
T2 construct: purchased KINOMEscan
T2 sequence (Q8NFD2 1-765): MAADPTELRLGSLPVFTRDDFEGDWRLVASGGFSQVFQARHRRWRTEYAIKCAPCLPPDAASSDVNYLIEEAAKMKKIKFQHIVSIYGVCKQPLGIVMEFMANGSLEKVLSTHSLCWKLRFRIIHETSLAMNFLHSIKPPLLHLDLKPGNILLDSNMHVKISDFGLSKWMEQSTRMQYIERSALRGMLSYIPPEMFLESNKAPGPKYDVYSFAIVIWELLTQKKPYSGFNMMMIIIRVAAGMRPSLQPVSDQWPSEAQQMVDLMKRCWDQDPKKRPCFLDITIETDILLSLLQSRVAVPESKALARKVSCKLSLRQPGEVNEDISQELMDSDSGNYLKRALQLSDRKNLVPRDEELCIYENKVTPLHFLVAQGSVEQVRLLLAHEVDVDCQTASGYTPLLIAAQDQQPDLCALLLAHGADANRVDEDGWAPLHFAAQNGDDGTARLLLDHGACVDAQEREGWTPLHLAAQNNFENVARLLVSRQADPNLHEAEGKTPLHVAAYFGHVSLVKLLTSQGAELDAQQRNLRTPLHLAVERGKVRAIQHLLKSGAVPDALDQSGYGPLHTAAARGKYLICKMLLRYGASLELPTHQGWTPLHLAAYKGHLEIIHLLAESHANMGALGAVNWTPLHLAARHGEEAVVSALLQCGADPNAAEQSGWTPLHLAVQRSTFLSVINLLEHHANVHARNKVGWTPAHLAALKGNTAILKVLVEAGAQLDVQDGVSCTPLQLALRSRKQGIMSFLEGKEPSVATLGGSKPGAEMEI
From the text: as §1

panel of 442 kinases [3] = biological target: T3, panel of 442 kinases (Homo sapiens, UniProt P43405); conditions: kinase SYK; compound concentration 10 µM
T3 construct: purchased KINOMEscan
From the text: as §1

T1 sequence (P49841 whole entry): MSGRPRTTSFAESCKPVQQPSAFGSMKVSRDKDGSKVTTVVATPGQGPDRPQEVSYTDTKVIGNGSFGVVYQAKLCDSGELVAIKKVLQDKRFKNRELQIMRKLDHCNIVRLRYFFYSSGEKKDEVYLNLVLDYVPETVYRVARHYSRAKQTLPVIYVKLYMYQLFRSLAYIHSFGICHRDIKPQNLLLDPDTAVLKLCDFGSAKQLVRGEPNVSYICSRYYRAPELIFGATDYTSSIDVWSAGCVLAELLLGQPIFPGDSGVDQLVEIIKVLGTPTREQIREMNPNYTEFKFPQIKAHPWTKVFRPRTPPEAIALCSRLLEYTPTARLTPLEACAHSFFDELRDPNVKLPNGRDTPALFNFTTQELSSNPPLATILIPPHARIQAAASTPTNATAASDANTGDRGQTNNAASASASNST

Compound	KINOMEscan: GSK3B (panel of 442 kinases [1])	KINOMEscan: ANKK1 (panel of 442 kinases [2])	% Ctrl, SYK (panel of 442 kinases [3]) [% Ctrl]
CCOc1cc(C(=O)N2CCC(N3CCN(C)CC3)CC2)ccc1Nc1ncc2c(n1)N(C1CCCC1)c1ccccc1C(=O)N2C [Compound 26]	98	84	100
COc1cc(C(=O)N2CCC(N3CCN(C)CC3)CC2)ccc1Nc1ncc2c(n1)N(C1CCCC1)c1ccccc1C(=O)N2C [Compound 25, 11-cyclopentyl-2-((2-methoxy-4-(4-(4-methylpiperazin-1-yl)piperidine-1-carbonyl)phenyl)amino)-5-methyl-5H-benzo[e]pyrimido[5,4-b][1,4]diazepin-6(11H)-one]	80	85	100
COc1cc(C(=O)N2CCC(N3CCN(C)CC3)CC2)ccc1Nc1ncc2c(n1)N1CCc3cccc(c31)C(=O)N2C [Compound 24]	72	–	88
COc1cc(C(=O)N2CCC(N3CCN(C)CC3)CC2)ccc1Nc1ncc2c(n1)N(C)c1ccccc1C(=O)N2C [15 (LRRK2-IN-1)]	88	100	100
